Data from patent US8404713B2, “Quinolinone derivatives as PARP inhibitors” (Janssen Pharmaceutica NV, priority 2007, dated 2013).

Tests used:
[1] = molecular target: T1, Human PARP-1 enzyme (Homo sapiens, UniProt P09874); assay: In vitro scintillation proximity assay (SPA) for PARP-1 inhibitory activity; format: biochemical; details: nicked DNA activated PARP-1, [3H]-NAD+, biotinylated histones; tested between 10^-5 M and 3x10^-9 M; read-out: in vitro SPA assay PARP-1 pIC50 (converted)
T1 construct: purchased Trevigen
Description: C.1. In Vitro Scintillation Proximity Assay (SPA) for PARP-1 Inhibitory Activity
Compounds of the present invention were tested in an in vitro assay based on SPA technology (proprietary to GE healthcare).
In principle, the assay relies upon the well established SPA technology for the detection of poly(ADP-ribosyl)ation of biotinylated target proteins, i.e histones. This ribosylation is induced using nicked DNA activated PARP-1 enzyme and [^3H]-nicotinamide adenine dinucleotide ([^3H]-NAD^+) as ADP-ribosyl donor.
Histones (type II-A, supplier: Sigma) were biotinylated using the biotinylation kit of Amersham and stored aliquoted at −20° C. A stock solution of 100 mg/ml SPA poly(vinyl toluene) (PVT) beads (supplier: Amersham) was made in PBS. A stock solution of 61.6 nM [^3H]-NAD^+ was made by adding [^3H]-NAD^+ (0.1 mCi/ml, supplier: Perkin Elmer) to incubation buffer (50 mM Tris/HCl, pH 8; 0.2 mM DTT; 4 mM MgCl2). A solution of 4 mM NAD^+ (supplier: Sigma) was made. Human PARP-1 enzyme was obtained from Trevigen. Biotinylated histones and PVT-SPA beads were mixed and pre-incubated for 30 min. at room temperature. PARP-1 enzyme (concentration was lot dependent) was mixed with the nicked DNA and the mixture was pre-incubated for 30 min. at 4° C. Equal parts of this histones/PVT-SPA beads solution and PARP-1 enzyme/DNA solution were mixed and 75 μl of this mixture together with 1 μl of compound in DMSO and 25 μl of [^3H]-NAD^+ was added per well into a 96-well microtiterplate. The final concentrations in the incubation mixture were 2 μg/ml for the biotinylated histones, 2 mg/ml for the PVT-SPA beads, 0.25 μg/ml for the nicked DNA and between 0.1-0.2 μg/ml for the PARP-1 enzyme. After incubation of the mixture for 20 min. at room temperature, the reaction was terminated by adding 100 μl of 4 mM NAD^+ in water (final concentration 2 mM) and plates were mixed. The beads were sedimented by centrifugation (10 min, 800 rpm). and plates transferred to a TopCountNXT™ (Packard) for scintillation counting, values were expressed as counts per minute (cpm). For each experiment, controls (containing PARP-1 enzyme and DMSO without compound), a blank incubation (containing DMSO but no PARP-1 enzyme, no DNA or compound) and samples (containing PARP-1 enzyme, DNA and compound dissolved in DMSO) were run in parallel. All compounds tested were dissolved and eventually further diluted in DMSO. A dose-response curve was made wherein the compounds were tested at concentrations between 10^−5M and 3×10^−9M. In each test, the blank value was subtracted from both the control and the sample values. The control sample represented maximal PARP-1 enzyme activity. For each sample, the amount of cpm was expressed as a percentage of the mean cpm value of the controls. When appropriate, IC50-values (concentration of the drug, needed to reduce the PARP-1 enzyme activity to 50% of the control) were computed using linear interpolation between the experimental points just above and below the 50% level. Herein the effects of test compounds are expressed as pIC50 (the negative log value of the IC50-value). As a reference compound, 4-amino-1,8-naphthalimide was included to validate the SPA assay.

[2] = molecular target: T2, TANK-2 enzyme (Homo sapiens, UniProt Q9H2K2); assay: In vitro scintillation proximity assay (SPA) for TANK-2 inhibitory activity; format: biochemical; details: auto-poly(ADP-ribosyl)ation, Ni flash plates; 96-well results if available, otherwise 384-well; tested between 10^-5 M and 3x10^-8 M; read-out: in vitro SPA assay TANK-2 pIC50 (converted)
T2 construct: made in house
T2 sequence (Q9H2K2 1-1166): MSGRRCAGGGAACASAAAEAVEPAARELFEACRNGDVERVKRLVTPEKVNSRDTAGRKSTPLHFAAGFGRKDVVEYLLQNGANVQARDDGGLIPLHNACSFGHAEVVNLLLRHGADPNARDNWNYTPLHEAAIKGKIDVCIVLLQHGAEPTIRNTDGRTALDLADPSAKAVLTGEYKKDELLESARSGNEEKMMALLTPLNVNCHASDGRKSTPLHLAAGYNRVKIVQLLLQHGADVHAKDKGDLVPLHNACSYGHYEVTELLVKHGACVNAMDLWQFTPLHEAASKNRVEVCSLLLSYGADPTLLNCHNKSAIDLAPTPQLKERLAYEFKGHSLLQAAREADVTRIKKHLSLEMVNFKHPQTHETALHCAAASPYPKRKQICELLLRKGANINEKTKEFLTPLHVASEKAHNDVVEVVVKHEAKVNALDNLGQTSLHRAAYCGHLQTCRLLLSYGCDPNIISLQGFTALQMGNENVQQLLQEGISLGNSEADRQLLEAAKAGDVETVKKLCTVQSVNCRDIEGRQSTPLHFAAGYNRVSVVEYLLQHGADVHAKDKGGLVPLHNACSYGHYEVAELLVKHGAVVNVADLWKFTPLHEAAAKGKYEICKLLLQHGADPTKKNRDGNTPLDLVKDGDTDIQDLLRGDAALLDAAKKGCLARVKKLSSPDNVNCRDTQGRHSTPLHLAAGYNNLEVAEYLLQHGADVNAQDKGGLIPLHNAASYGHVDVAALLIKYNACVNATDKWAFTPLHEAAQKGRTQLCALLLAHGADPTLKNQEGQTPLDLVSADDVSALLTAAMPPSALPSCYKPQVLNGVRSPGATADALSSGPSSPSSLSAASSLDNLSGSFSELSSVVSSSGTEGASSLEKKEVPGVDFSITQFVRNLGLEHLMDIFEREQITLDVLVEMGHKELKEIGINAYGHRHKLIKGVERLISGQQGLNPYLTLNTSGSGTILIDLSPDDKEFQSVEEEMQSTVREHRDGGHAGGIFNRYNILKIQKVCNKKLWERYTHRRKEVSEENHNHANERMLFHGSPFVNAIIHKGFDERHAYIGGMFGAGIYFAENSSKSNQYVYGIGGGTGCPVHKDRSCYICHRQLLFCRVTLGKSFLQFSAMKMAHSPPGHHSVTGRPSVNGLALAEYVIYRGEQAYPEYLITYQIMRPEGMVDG
Description: C.2. In Vitro Scintillation Proximity Assay (SPA) for TANK-2 Inhibitory Activity
Compounds of the present invention were tested in an in vitro assay based on SPA technology with Ni Flash plates (96 or 384 well).
In principle, the assay relies upon SPA technology for the detection of auto-poly(ADP-ribosyl)ation of TANK-2 protein using [^3H]-nicotinamide adenine dinucleotide ([^3H]-NAD^+) as ADP-ribosyl donor.
A stock solution of 100 nM [^3H]-NAD^+/NAD (0.1 mCi/ml, supplier: Perkin Elmer) and 0.25 mM NAD (Sigma) was made in assay buffer (60 mM Tris/HCl, pH 7.4; 0.9 mM DTT; 6 mM MgCl2). The TANK-2 enzyme was produced as described in EP1238063. 60 μl of assay buffer, together with 1 μl of compound in DMSO, 20 μl of [^3H]-NAD^+/NAD and 20 μl of TANK-2 enzyme (final concentration 8 μg/ml) was added per well into a 96-well Ni-coated flash plate (Perkin Elmer). After incubation of the mixture for 120 min. at room temperature, the reaction was terminated by adding 60 μl of stopsolution (42.6 mg NAD in 6 ml H2O). The plates were covered with a plate sealer and placed in a TopCountNX™ (Packard) for scintillation counting. Values were expressed as counts per minute (cpm). For each experiment, controls (containing TANK-2 enzyme and DMSO without compound), a blank incubation (containing DMSO but no TANK-2 enzyme or compound) and samples (containing TANK-2 enzyme and compound dissolved in DMSO) were run in parallel. All compounds tested were dissolved and eventually further diluted in DMSO. […] In each test, the blank value was subtracted from both the control and the sample values. The control sample represented maximal TANK-2 enzyme activity. For each sample, the amount of cpm was expressed as a percentage of the mean cpm value of the controls. When appropriate, IC50-values (concentration of the drug, needed to reduce the TANK-2 enzyme activity to 50% of the control) were computed using linear interpolation between the experimental points just above and below the 50% level. Herein the effects of test compounds are expressed as pIC50 (the negative log value of the IC50-value). As reference compounds, 3-aminobenzamide and 4-amino-1,8-naphtalimide were included to validate the SPA assay. Herein the assay was described using 96-well plates. In the assay using 384-well plates the same final concentrations were used and volumes were adapted.

T1 sequence (P09874 whole entry): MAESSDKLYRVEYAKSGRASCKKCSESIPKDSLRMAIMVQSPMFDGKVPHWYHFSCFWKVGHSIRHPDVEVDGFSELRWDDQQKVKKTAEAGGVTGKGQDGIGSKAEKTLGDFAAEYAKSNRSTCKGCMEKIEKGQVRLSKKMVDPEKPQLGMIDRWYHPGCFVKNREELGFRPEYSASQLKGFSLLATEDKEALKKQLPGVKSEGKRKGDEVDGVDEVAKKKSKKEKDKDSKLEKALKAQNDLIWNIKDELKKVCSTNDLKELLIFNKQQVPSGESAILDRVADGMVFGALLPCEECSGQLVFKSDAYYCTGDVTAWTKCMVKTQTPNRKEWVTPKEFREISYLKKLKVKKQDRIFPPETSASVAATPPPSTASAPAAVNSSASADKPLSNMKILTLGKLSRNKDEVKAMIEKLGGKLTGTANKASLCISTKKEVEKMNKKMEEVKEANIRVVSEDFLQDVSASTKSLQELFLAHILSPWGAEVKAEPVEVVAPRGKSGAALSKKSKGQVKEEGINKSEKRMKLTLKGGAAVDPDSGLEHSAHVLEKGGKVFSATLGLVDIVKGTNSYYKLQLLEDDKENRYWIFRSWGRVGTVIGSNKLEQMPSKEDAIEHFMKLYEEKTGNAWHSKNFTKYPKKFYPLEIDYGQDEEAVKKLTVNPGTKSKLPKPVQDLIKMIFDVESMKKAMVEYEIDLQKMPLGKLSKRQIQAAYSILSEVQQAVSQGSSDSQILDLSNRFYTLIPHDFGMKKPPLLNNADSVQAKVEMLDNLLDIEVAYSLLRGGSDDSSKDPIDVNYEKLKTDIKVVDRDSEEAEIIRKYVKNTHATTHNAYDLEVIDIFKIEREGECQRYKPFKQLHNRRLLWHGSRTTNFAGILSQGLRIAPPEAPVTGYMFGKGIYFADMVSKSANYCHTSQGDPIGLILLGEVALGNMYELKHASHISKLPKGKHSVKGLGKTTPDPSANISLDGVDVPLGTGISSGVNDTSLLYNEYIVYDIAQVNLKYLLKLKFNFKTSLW

Row | Compound | IC50 [1] [µM] | IC50 [2] [µM]
1 | CCc1cc2ccc(C(CO)N3CCOCC3)cc2[nH]c1=O (stereo not drawn) [Compound 5] | 0.0828 | 1.44
2 | CCc1cc2ccc(CCCN3CCN(c4ccc(C#N)cn4)CC3)cc2[nH]c1=O [Compound 8] | 0.17 | 0.0632
3 | CCc1cc2ccc(CN3CCN(c4ncc(C(=O)O)cn4)CC3)cc2[nH]c1=O [Compound 12] | 0.0771 | 0.0655
4 | CCc1cc2ccc(CN3CCN(c4ccc(C#N)cn4)CC3)cc2[nH]c1=O [Compound 17] | 0.000865 | 0.0766
5 | CCc1cc2ccc(CN3CCN(c4ccccc4Cl)CC3)cc2[nH]c1=O [Compound 18] | 0.000566 | 1.93
6 | CCc1cc2ccc(CNCCN3CCOCC3)cc2[nH]c1=O [Compound 19] | 0.0046 | 5.87
7 | CCc1cc2ccc(CN3CC=C(c4ccccc4)CC3)cc2[nH]c1=O [Compound 21] | 0.00103 | 0.986
8 | CCc1cc2ccc(CN3CCN(c4ccc(C(F)(F)F)cn4)CC3)cc2[nH]c1=O [Compound 22] | 0.00121 | 0.368
9 | CCc1cc2ccc(CNCCN3CCN(c4ncccn4)CC3)cc2[nH]c1=O [Compound 24] | 0.0804 | 1
10 | CCc1cc2ccc(CNCC3CCN(c4ncccn4)CC3)cc2[nH]c1=O [Compound 25] | 0.136 | 1.1
11 | Cc1cc2ccc(CN3CCN(c4ncccn4)CC3)cc2[nH]c1=O [Compound 26] | 0.237 | 1.98
12 | CCc1cc2ccc(CN3CCN(CCOC)CC3)cc2[nH]c1=O [Compound 27] | 0.065 | 3.96
13 | CCc1cc2ccc(CN3C[C@@H]4C[C@H]3CN4c3ccc(Cl)cc3)cc2[nH]c1=O [Compound 28] | 0.0348 | 0.65
14 | CCc1cc2ccc(CN3CCc4ccccc4C3)cc2[nH]c1=O [Compound 29] | 0.02 | 0.424
15 | CCc1cc2ccc(CN3CCN(c4ncccn4)CC3)cc2[nH]c1=O [Compound 30] | 0.0143 | 0.188
16 | CCc1cc2ccc(CN3CCC(Cc4ccccc4)CC3)cc2[nH]c1=O [Compound 31] | 0.403 | 3.12

Row | Compound | IC50 [1] [µM] | IC50 [2] [µM]
17 | CCc1cc2ccc(C(O)CN3CCN(c4ncccn4)CC3)cc2[nH]c1=O (stereo not drawn) [Compound 32] | 0.0895 | 0.0923
18 | CCc1cc2ccc(C(CO)N3CCN(c4ncccn4)CC3)cc2[nH]c1=O (stereo not drawn) [Compound 33] | 0.0847 | 0.78
19 | CCc1cc2ccc(C(O)CN3CCC(Cc4ccccc4)CC3)cc2[nH]c1=O (stereo not drawn) [Compound 34] | 0.0946 | 0.391
20 | CCc1cc2ccc(CN3CCN(c4ccncc4)CC3)cc2[nH]c1=O [Compound 35] | 0.00114 | 0.398
21 | CCc1cc2ccc(CN3CCN(c4cnccn4)CC3)cc2[nH]c1=O [Compound 36] | 0.00255 | 0.222
22 | CCc1cc2ccc(CN3CCN(c4n[nH]c5ccccc45)CC3)cc2[nH]c1=O [Compound 37] | 0.00568 | 0.232
23 | CCc1cc2ccc(CN(C)CCOC)cc2[nH]c1=O [Compound 38] | 0.0119 | 0.867
24 | CCc1cc2ccc(CN3CCN(c4ccc(C)c(C)c4)CC3)cc2[nH]c1=O [Compound 40] | 0.0256 | 0.649
25 | CCc1cc2ccc(CN3CCN(c4ccc(OC)c(OC)c4)CC3)cc2[nH]c1=O [Compound 41] | 0.0342 | 0.5
26 | CCc1cc2ccc(CN3CCN(c4ccc(OC)cc4)CC3)cc2[nH]c1=O [Compound 42] | 0.000893 | 1.3
27 | CCc1cc2ccc(CN3CCN(c4ccc(Cl)c(Cl)c4)CC3)cc2[nH]c1=O [Compound 43] | 0.00258 | 1.72
28 | CCc1cc2ccc(CN3CCN(CCc4ccccc4)CC3)cc2[nH]c1=O [Compound 44] | 0.0069 | 2.19
29 | CCc1cc2ccc(CN3CCN(c4cccc(Cl)c4)CC3)cc2[nH]c1=O [Compound 45] | 0.0163 | 1.71
30 | CCc1cc2ccc(CNCCCc3ccccc3)cc2[nH]c1=O [Compound 46] | 0.00948 | 5.38
31 | CCc1cc2ccc(CNCc3ccncc3)cc2[nH]c1=O [Compound 47] | 0.124 | 0.144
32 | CCc1cc2c(OC)cc(CN3CCN(c4ccc(C#N)cn4)CC3)cc2[nH]c1=O [Compound 69] | – | 0.0575
